Values after ≈ are worked out from the molar mass of the structure shown. Each block holds one compound with its values, some of them ahead of it.
Legend:
[1] = test system: bacterial reverse mutation; settings: Registered substances; cited from earlier work
[2] = test system: bacterial reverse mutation; assay: In vitro bacterial reverse mutation assay (Ames)
mutant IDH1 (mIDH1) = settings: cited from earlier work
mutant IDH2 (mIDH2) = settings: tool compound; Rohle et al. Science 2013; cited from earlier work
mIDH1-driven gliomas = settings: some model systems; Rohle et al. Science 2013; cited from earlier work
[3] = Dissolution of 250 mg tablets spiked with crystalline form, Medium B (pH 6.8, 0.4% SDS); assay type: physicochemical; settings: 250 mg tablets vs target (nominal) formulation
Source text: (§1) In order to assess the impact of crystalline polymorphic forms on dissolution profiles, variant tablets were manufactured with SDI spiked with drug substance of two different crystalline polymorphs: Form B, and Form L, which forms are as described above. As used herein, the term “spiked” or “spiking” is used consistently with usage in the field of pharmaceutical manufacturing, namely the introduction of a particular form to the crystallization solution to encourage nucleation and growth. These forms were selected because it was determined that if an SDI should crystallize, these two forms would be most likely to be present. However, it is noted that the SDI can be reliably made in completely amorphous form, with no detectable crystalline form present even under stressed conditions.
250 mg tables were manufactured by adding 50 mg (20% w/w) of crystalline Form L or Form B with the ivosidenib SDI (therefore, amorphous SDI was present at 80% w/w as a measure of the active ingredient.)
Similar dissolution studies were undertaken with Medium B (pH 6.8, 0.4% SDS). Similarity factors (f2) were calculated to assess the dissolution profiles, compared to a target formulation. The similarity factors are included in Table 21.

[4] = Dissolution of 250 mg tablets spiked with crystalline form, Medium A (pH 6.8, 0.6% SDS); assay type: physicochemical; settings: 250 mg tablets vs target (nominal) formulation
Source text: as §1
250 mg tables were manufactured by adding 50 mg (20% w/w) of crystalline Form L or Form B with the ivosidenib SDI (therefore, amorphous SDI was present at 80% w/w as a measure of the active ingredient.) […]
Similar dissolution studies were undertaken with Medium B (pH 6.8, 0.4% SDS). Similarity factors (f2) were calculated to assess the dissolution profiles, compared to a target formulation. […]

[5] = Solubility of solid state forms in methanol; assay type: physicochemical
[6] = Solubility in 5:95 v/v iPrOAc:heptane slurry; assay type: physicochemical; settings: remained a thick slurry
[7] = Competitive slurries of Form L, Form M and Form N; assay type: physicochemical; settings: Form L, N in dichloromethane, heptane, tBME, acetone, ambient or 35/50 °C
Experimental: The temperature was increased to 70° C. to dissolve material. Anti-solvent addition (60 mL heptane) at 60 mL/h was carried out at 70° C. Once the anti-solvent addition was complete, the reaction was cooled to 60° C. and seeded with 0.63 g of Form B ivosidenib, which was stirred at 60° C. for 4 h then cooled to 15° C. over 10 h. An anti-solvent addition was started (308 mL heptane) at 75 mL/h, 15° C., 200 rpm. When the anti-solvent addition finished, the mixture was stirred at 15° C. for 2 h then isolated solid through filtration using a Buchner funnel (120 mm Ø) and washed with 246 mL of iPrOAc:heptane (1:1 v/v). In isopropyl acetate:heptane 5:95 v/v, Form N was retained, while in isopropyl acetate:heptane 20:80 v/v, a mixture of Form B and Form N was obtained.
The following procedure was followed for competitive slurry trials of the Form L, Form M, and Form N polymorphs: Approximately 50 or 75 mg of each different solid form was weighed out into 1.5 mL screw-cap vials. […]
Aliquots (100 μL or 25 μL) of appropriate solvent added as required to obtain a mobile slurry which was then stirred at either ambient (ca. 23° C.) or elevated (35 or 50° C.) temperature for ca. 21 or 68.5 h (see Table 4 for details). Solids were isolated solid by centrifugation and analyzed by XRPD. […]

[8] = potential impurities of ivosidenib drug substance; cited from earlier work
mutant IDH1 proteins = settings: U.S. Publication No. 2013/0190249 A1; cited from earlier work
[9] = Approximate solubility of ivosidenib freebase in 20 solvent systems at RT; assay type: physicochemical
Experimental: Approximate solubility of ivosidenib freebase was determined in 20 solvent systems at RT. In the experiment, ˜2 mg of ivosidenib was added into a 3-mL glass vial, followed by the addition of corresponding solvent. The solvent was added by 100 μL step wise until the solution was visually clear or a total volume of 2 mL was reached. This solubility information was used to select solvents for the polymorph screening.

Structure (SMILES): Clc1ccccc1C(Cl)Cl [1-chloro-2-(dichloromethyl)benzene]
Ames result reported by ECHA [1]: Ames-negative

Structure (SMILES): ClCc1ccccc1Cl [2-chlorobenzyl chloride]
Ames result reported by ECHA [1]: Ames-negative

Structure (SMILES): Fc1cncc(/N=C/c2ccccc2Cl)c1 [(E)-1-(2-chlorophenyl)-N-(5-fluoropyridin-3-yl) methanimine]
Ames test result [2]: negative

Structure (SMILES): Cc1ccccc1C(C(=O)NC1CCCCC1)N(C(=O)Cn1ccnc1C)c1cccc(F)c1 (stereo not drawn) [AGI-5198]
inhibition of mutant IDH1 (mutant IDH1 (mIDH1); tool compound, Rohle et al. Science 2013): inhibit mutant IDH1 (mIDH1)
inhibition of mutant IDH2 (mutant IDH2 (mIDH2)): not mutant IDH2 (mIDH2)
growth of mIDH1-driven gliomas (mIDH1-driven gliomas): repress growth

Similarity factor (f2) result for dissolution medium B [3]: 43.1
Similarity factor (f2) result for dissolution medium A [4]: 26.0
Structure (SMILES): N#Cc1ccnc(N2C(=O)CC[C@H]2C(=O)N(c2cncc(F)c2)[C@H](C(=O)NC2CC(F)(F)C2)c2ccccc2Cl)c1 [Form B]

Similarity factor (f2) result for dissolution medium B [3]: 48.5
Similarity factor (f2) result for dissolution medium A [4]: 28.9
Structure (SMILES): N#Cc1ccnc(N2C(=O)CC[C@H]2C(=O)N(c2cncc(F)c2)[C@H](C(=O)NC2CC(F)(F)C2)c2ccccc2Cl)c1 [Form L]

solubility in methanol [5]: 109 mg/mL (≈ 187 mM)
solubility ([5]; organic solvent or mixture, thermodynamic from solid, compared with ~70 mg/mL AG-120 in the SDI spray solution, read-out: solubility): ~110 mg/mL (≈ 189 mM)
solubility in 5:95 v/v iPrOAc:heptane [6]: poorly soluble
Structure (SMILES): N#Cc1ccnc(N2C(=O)CC[C@H]2C(=O)N(c2cncc(F)c2)[C@H](C(=O)NC2CC(F)(F)C2)c2ccccc2Cl)c1 [Form M]

most stable anhydrous form in competitive slurries [7]: stable anhydrous form
solubility ([5]; compared with ~70 mg/mL AG-120 in the SDI spray solution): ~110 mg/mL (≈ 189 mM)
solubility ([5]; organic solvent or mixture, thermodynamic from solid, read-out: solubility in methanol): 113 mg/mL (≈ 194 mM)
solubility in 5:95 v/v iPrOAc:heptane [6]: poorly soluble
Structure (SMILES): N#Cc1ccnc(N2C(=O)CC[C@H]2C(=O)N(c2cncc(F)c2)[C@H](C(=O)NC2CC(F)(F)C2)c2ccccc2Cl)c1 [Form N]

Structure (SMILES): O=Cc1ccccc1 [benzaldehyde]
mutagenicity according to literature [8]: known mutagens

Structure (SMILES): c1ccccc1 [benzene]
mutagenicity according to literature [8]: known mutagens

Structure (SMILES): ClCc1ccccc1 [benzyl chloride]
mutagenicity according to literature [8]: known mutagens

Solubility (mg/mL) ([9]; Acetic acid, RT): 40.4~20.2 mg/mL
Solubility (mg/mL) ([9]; DMSO, RT): 46.6~23.2 mg/mL
Solubility (mg/mL) ([9]; IPA, RT): 38.8~19.4 mg/mL
Solubility (mg/mL) ([9]; IPAC, RT): 40.2~20.1 mg/mL
Solubility (mg/mL) ([9]; MIBK, RT): 18.6~12.0 mg/mL
Solubility (mg/mL) ([9]; Toluene, RT): 18.6~12.4 mg/mL
solubility ([9]; organic solvent or mixture, thermodynamic from solid, 1,4-Dioxane, RT): > 41.6 mg/mL
solubility ([9]; organic solvent or mixture, thermodynamic from solid, 2-MeTHF, RT): > 41.4 mg/mL
solubility ([9]; organic solvent or mixture, thermodynamic from solid, ACN, RT): > 36.8 mg/mL
solubility ([9]; organic solvent or mixture, thermodynamic from solid, Acetone, RT): > 36.4 mg/mL
solubility ([9]; organic solvent or mixture, thermodynamic from solid, CHCl3, RT): > 38.2 mg/mL
solubility ([9]; organic solvent or mixture, thermodynamic from solid, DMA, RT): > 24.5 mg/mL
solubility ([9]; organic solvent or mixture, thermodynamic from solid, EtOAc, RT): > 41.8 mg/mL
solubility ([9]; organic solvent or mixture, thermodynamic from solid, EtOH, RT): > 39.4 mg/mL
solubility ([9]; organic solvent or mixture, thermodynamic from solid, Heptane, RT): < 0.95 mg/mL
solubility ([9]; organic solvent or mixture, thermodynamic from solid, MTBE, RT): > 37.8 mg/mL
solubility ([9]; organic solvent or mixture, thermodynamic from solid, MeOH, RT): > 47.6 mg/mL
solubility ([9]; organic solvent or mixture, thermodynamic from solid, NMP, RT): > 42 mg/mL
solubility ([9]; organic solvent or mixture, thermodynamic from solid, THF, RT): > 39 mg/mL
solubility ([9]; water, thermodynamic from solid, H2O, RT): < 1.26 mg/mL
Structure (SMILES): N#Cc1ccnc(N2C(=O)CC[C@H]2C(=O)N(c2cncc(F)c2)[C@H](C(=O)NC2CC(F)(F)C2)c2ccccc2Cl)c1 [ivosidenib, (S)—N—((S)-1-(2-Chlorophenyl)-2-(3,3-difluorocyclobutylamino)-2-oxoethyl)-1-(4-cyanopyridin-2-yl)-N-(5-fluoropyridin-3-yl)-5-oxopyrrolidine-2-carboxamide]
inhibition of mutant IDH1 proteins in cellular assays (mutant IDH1 proteins): inhibitor
inhibition of mutant IDH1 proteins in biochemical assays (mutant IDH1 (mIDH1); U.S. Publication No. 2013/0190249 A1): inhibitor
